The text below walks through data of ChEMBL document CHEMBL1152979, “Inhibition of the insulin-like growth factor-1 receptor (IGF1R) tyrosine kinase as a novel cancer therapy approach” (J Med Chem, 2009).

A short description of test [1]: Cytotoxicity against human RD1 cells. In kind it is functional, cell-based.
A short description of test [2]: Cytotoxicity against human MDA PCa 2b cells. In kind it is functional, cell-based.
The nature of test [3]: Selectivity for HER2 over EGFR.
Test [4] concerns the target T1, Insulin-like growth factor 1 receptor (Homo sapiens, UniProt P08069). As to the kind of experiment: Inhibition for IGF1R-induced S6 ribosomal protein phosphorylation in growth factor-stimulated NHDF.
Test [5] has as its target T1, Insulin-like growth factor 1 receptor. The experiment in a line: Inhibition of IGF1R in growth factor-stimulated NHDF.
Test [6] has the same target.
Test [7] shares this target. This is another data set of the same source.
Description: Inhibition of IGF1R by cell based assay
For test [8] the target is unchanged. As to the kind of experiment: Displacement of fluorescent ATP competitive ligand from IGF1R.
In test [9] the target is T2, Insulin receptor (Homo sapiens, UniProt P06213). The experiment in a line: Inhibition of IRK.
The target of a further test is Focal adhesion kinase 1 (Homo sapiens, UniProt Q05397).
The next test relates to MCF7. The experiment in a line: Cytotoxicity against human MCF7 cells. In kind it is functional, cell-based.
Test [10] concerns the target Tyrosine-protein kinase Lck (Homo sapiens, UniProt P06239).
A further test deals with COLO 205. As to the kind of experiment: Cytotoxicity against human COLO205 cells. In kind it is functional, cell-based.
Test [11] has as its target T1, Insulin-like growth factor 1 receptor. As to the kind of experiment: Inhibition of IGF1R in human MCF7 cells by Western blot analysis. In kind it is cell-based.
Another test addresses Bcr/Abl fusion protein (Homo sapiens, UniProt P00519). The experiment in a line: Inhibition of BCR-ABL p210. In kind it is protein assay.
For test [12], the target named is Epidermal growth factor receptor (Homo sapiens, UniProt P00533). The experiment in a line: Inhibition of HER1.
For test [13], the target named is Mast/stem cell growth factor receptor Kit (Homo sapiens, UniProt P10721).
Test [14] addresses Receptor tyrosine-protein kinase erbB-2 (Homo sapiens, UniProt P04626). As to the kind of experiment: Inhibition of HER2.
Test [15] deals with Vascular endothelial growth factor receptor 2 (Homo sapiens, UniProt P35968). As to the kind of experiment: Inhibition of VEGFR2.
The target in test [16] is T1, Insulin-like growth factor 1 receptor. This is another data set of the same source.
Description: Inhibition of IGF1R by cell based assay
In test [17] the target is T2, Insulin receptor.
Description: Inhibition of insulin receptor by cell based assay
Test [18] is described as follows: Inhibition of PDGFR.
Test [19] has as its target T1, Insulin-like growth factor 1 receptor. The experiment in a line: Inhibition of IGF1R autophosphorylation in human MCF7 cells by Western blot analysis. In kind it is cell-based. (In general: A western blot detects proteins with antibodies after separation by electrophoresis.)
Test [20] can be described thus: Selectivity for insulin receptor over IGF1R.
A short description of test [21]: Selectivity for EGFR over HER2.
Test [22] has as its target T1, Insulin-like growth factor 1 receptor. The experiment in a line: Inhibition of GST-tagged human IGF1R expressed in baculovirus-infected Sf21 cells by scintillation proximity assay. Background: In a scintillation proximity assay essentially only radioactivity close to the scintillant gives light.
The target is the same in test [23]. As to the kind of experiment: Inhibition of IGF1R in IGF1-stimulated human MCF7 cells by Western blot analysis. In kind it is cell-based.

SMILES strings stand for the structures. pIC50: −log10 of the molar value. A value given as a limit tells only on which side of the number the result lay.

T1 sequence (P08069 31-736 limits assumed): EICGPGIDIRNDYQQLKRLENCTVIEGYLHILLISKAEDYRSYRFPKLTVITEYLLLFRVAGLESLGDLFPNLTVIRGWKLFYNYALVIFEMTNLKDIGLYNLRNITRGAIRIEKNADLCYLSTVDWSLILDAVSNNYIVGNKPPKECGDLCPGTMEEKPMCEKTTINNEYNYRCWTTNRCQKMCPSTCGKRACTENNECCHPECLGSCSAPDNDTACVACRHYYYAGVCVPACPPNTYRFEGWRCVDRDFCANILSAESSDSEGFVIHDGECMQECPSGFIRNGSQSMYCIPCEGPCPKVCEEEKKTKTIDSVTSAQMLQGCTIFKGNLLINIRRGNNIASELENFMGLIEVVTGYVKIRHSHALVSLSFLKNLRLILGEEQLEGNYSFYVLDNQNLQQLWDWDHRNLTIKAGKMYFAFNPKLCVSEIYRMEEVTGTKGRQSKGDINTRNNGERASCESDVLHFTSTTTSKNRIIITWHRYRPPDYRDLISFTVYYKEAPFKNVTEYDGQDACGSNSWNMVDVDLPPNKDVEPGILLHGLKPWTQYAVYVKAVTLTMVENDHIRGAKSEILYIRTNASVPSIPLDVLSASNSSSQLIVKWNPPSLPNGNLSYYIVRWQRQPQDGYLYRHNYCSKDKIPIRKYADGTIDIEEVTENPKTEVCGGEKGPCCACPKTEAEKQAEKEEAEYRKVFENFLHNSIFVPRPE
T1 sequence (P08069 741-1367 limits assumed): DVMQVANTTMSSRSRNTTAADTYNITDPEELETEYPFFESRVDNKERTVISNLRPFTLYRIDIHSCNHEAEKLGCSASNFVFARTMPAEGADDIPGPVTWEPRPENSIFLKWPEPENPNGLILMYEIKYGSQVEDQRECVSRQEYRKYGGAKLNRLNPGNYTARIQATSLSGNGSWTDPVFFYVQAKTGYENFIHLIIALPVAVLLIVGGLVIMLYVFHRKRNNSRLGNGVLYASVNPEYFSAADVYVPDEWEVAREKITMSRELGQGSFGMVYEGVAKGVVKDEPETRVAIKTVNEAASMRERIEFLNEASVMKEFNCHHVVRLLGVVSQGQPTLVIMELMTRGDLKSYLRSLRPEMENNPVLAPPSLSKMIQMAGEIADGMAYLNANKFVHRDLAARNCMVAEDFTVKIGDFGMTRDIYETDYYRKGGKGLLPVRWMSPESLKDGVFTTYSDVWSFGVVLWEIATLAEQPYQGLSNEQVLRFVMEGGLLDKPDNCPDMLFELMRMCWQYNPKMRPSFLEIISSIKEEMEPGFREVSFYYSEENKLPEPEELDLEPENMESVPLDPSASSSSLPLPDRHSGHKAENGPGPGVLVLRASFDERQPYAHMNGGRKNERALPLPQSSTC
T2 sequence (P06213 28-758 limits assumed): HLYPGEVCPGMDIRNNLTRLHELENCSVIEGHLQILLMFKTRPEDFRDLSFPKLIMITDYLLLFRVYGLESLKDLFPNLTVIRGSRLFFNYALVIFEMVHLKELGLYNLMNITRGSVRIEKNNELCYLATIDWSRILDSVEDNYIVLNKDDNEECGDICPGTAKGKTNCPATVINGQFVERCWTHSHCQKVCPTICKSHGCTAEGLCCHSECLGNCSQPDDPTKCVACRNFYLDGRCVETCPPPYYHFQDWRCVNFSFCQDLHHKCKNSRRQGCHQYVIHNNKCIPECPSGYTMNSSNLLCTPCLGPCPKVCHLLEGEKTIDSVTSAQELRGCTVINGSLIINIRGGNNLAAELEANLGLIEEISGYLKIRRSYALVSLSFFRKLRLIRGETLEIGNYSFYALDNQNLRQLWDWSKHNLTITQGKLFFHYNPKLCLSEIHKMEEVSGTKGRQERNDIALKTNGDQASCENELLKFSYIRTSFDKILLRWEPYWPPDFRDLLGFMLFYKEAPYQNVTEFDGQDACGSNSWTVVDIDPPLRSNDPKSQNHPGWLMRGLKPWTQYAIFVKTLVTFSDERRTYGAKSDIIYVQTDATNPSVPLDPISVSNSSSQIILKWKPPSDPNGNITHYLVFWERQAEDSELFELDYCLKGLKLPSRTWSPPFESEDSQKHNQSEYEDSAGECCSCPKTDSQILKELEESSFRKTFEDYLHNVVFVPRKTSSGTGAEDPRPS
T2 sequence (P06213 763-1382 limits assumed): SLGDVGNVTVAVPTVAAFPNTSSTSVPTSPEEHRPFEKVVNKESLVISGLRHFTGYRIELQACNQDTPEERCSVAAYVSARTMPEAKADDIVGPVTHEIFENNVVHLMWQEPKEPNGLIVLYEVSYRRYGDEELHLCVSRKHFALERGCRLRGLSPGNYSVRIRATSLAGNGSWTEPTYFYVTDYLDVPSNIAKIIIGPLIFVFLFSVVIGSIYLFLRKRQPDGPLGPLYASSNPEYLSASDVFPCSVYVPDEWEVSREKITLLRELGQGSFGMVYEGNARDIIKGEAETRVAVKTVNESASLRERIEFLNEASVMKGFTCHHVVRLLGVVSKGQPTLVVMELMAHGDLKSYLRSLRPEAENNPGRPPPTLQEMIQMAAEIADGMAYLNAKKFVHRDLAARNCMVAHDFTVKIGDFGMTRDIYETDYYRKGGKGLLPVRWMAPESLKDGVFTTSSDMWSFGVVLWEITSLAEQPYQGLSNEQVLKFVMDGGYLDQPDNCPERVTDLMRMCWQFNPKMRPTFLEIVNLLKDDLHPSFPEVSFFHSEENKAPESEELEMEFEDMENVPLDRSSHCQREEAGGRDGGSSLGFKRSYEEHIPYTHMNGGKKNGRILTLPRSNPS
Chain of Mast/stem cell growth factor receptor Kit (P10721 whole entry): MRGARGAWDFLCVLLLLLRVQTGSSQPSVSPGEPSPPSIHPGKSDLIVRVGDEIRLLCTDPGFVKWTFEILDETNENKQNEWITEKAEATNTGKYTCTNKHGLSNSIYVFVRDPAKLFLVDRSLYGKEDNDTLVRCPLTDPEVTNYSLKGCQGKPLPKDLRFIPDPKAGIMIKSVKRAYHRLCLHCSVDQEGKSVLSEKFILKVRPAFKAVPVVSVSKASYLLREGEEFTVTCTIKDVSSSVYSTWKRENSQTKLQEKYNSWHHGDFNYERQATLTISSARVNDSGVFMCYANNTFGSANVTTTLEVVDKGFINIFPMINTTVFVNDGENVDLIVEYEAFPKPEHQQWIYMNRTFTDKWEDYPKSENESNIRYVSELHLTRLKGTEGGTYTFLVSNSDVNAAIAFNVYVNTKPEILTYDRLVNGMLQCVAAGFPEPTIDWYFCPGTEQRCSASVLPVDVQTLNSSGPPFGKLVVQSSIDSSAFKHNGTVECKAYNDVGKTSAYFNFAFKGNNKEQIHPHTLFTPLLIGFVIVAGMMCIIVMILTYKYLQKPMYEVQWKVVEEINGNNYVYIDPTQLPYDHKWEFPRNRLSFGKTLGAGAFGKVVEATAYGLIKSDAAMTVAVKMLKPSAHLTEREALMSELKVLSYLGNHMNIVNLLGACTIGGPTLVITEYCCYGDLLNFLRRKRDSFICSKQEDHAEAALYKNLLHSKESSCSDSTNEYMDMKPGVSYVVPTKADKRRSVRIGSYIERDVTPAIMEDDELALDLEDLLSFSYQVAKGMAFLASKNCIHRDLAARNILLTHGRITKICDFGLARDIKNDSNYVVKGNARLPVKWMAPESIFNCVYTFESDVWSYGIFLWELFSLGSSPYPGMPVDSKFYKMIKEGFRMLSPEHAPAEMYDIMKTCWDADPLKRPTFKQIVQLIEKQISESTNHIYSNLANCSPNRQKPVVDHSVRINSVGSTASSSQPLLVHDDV
Chain of Receptor tyrosine-protein kinase erbB-2 (P04626 whole entry): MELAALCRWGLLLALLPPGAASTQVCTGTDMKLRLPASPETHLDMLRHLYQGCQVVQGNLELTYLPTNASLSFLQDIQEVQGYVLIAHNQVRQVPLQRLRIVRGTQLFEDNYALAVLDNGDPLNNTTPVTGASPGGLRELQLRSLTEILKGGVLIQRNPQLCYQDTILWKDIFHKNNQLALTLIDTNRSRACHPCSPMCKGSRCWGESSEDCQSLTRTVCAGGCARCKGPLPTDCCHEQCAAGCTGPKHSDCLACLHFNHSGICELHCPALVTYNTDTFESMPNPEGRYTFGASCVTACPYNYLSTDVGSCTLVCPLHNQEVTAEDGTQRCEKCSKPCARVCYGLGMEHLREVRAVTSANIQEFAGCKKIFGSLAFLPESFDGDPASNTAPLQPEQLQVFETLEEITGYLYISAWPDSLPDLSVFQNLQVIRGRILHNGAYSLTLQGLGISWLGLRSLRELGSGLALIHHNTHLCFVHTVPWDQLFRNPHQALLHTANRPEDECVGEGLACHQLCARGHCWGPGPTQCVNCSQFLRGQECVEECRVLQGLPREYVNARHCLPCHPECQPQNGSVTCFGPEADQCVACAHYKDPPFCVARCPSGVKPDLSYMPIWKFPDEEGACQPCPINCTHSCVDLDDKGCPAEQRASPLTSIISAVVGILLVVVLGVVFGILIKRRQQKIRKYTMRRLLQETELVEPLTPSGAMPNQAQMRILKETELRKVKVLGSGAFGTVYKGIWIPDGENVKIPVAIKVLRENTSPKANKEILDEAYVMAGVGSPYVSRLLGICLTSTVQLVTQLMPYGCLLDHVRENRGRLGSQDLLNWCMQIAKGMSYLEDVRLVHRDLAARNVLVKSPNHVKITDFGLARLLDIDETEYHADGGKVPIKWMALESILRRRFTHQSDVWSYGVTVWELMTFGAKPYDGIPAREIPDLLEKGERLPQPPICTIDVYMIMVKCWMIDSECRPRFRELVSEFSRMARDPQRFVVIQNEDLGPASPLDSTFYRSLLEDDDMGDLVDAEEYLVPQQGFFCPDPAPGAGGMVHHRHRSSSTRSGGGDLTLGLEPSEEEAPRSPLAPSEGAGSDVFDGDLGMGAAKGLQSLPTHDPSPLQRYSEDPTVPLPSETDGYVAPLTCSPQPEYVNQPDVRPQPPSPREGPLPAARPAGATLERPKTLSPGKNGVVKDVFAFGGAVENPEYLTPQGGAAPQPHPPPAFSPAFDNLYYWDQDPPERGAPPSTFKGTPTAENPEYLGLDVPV

As to `Cc1cc(N2CCOCC2)cc2[nH]c(-c3c(NC[C@@H](O)c4cccc(Cl)c4)cc[nH]c3=O)nc12`, the pIC50 in [1] is 6.69; in test [2] it was 6.71.

As for `CC(C)(C)c1cc(/C=C(\C#N)C(N)=S)cc(C(C)(C)C)c1O`, in test [3], the Selectivity ratio was determined as 1000.

With `CN1CCN(c2ccc(C(=O)Nc3n[nH]c4c3CN(S(=O)(=O)c3cc(F)cc(F)c3)CC4)cc2)CC1`, the pIC50 in [4] was 5.52; in test [5], 6.47.

`O=C(O[C@@H]1Cc2ccccc2O[C@@H]1c1cc(O)c(O)c(O)c1)c1cc(O)c(O)c(O)c1` showed a pIC50 in test [6] of 4.85.

Take `CCOC(=O)c1c(C=O)[nH]c(C(=O)OC(C)(C)C)c1CC`: the results for the Activity (in test [7]; in [8]; at Insulin receptor [9]) were 5.3 µM, 0.49 µM and 2 µM, respectively.

Turning to `Cc1cc(N2CCN(CCC#N)CC2)cc2nc(-c3c(NC[C@@H](O)c4ccccc4Cl)cc[nH]c3=O)[nH]c12`, the pIC50 at Focal adhesion kinase 1 was 7.03; in test [1], 6.84; with MCF7 it was 6.63; in test [2], 6.73; in test [10] it was less than 5.82; with COLO 205, 6.92.

The molecule `CN1CCN(c2ccc(C(=O)Nc3n[nH]c4c3CN(S(=O)(=O)c3cc(F)cc(F)c3)CC4)c(NC(=O)c3ccc[nH]3)c2)CC1` had a pIC50 in test [11] of 7.10.

As for `Cc1cc(N2CCOCC2)cc2[nH]c(-c3c(NC[C@H](O)c4ccccc4Cl)cc[nH]c3=O)nc12`, the pIC50 in test [6] is 6.08.

Take `Nc1ncnc2c1c(-c1cccc(OCc3ccccc3)c1)cn2[C@H]1C[C@@H](CN2CCC2)C1` [AEW-541]: the negative-log IC50 (pIC50) was less than 5.00 on Bcr/Abl fusion protein, less than 5.00 in [12] and less than 5.30 in [13].

Regarding `Nc1ncnc2c1c(-c1cccc(OCc3ccccc3)c1)cn2[C@H]1C[C@H](N2CCCC2)C1`, the pIC50 is less than 5.00 against Bcr/Abl fusion protein; less than 5.00 in test [14]; less than 5.00 in test [15]; 6.77 in [16]; 5.55 at Insulin receptor [17]; less than 5.00 in test [18]. The molecule further had a pIC50 in test [13] of less than 5.30.

In turn, `COc1ccc(Cl)cc1NC(=O)Nc1cc(C)nc2ccccc12` had a pIC50 in test [19] greater than 6.00.

In test [6], `Nc1nccn2cnc(-c3ccc4ccc(-c5ccccc5)nc4c3C3CC(N4CC4)C3)c12` (configuration not stated) had a pIC50 of 7.70. In [20], the Selectivity ratio came to 5.

As for `N#C/C(=C\c1ccc(O)c(O)c1)C(=O)c1ccc(O)c(O)c1`, the pIC50 in [6] was 7.21.

For `N#C/C(=C\c1ccc(O)c(O)c1)C(=O)NCc1ccccc1`, the Selectivity ratio in test [21] came to 100.

Take `CN1CCN(c2ccc(C(=O)Nc3n[nH]c4c3CN(S(=O)(=O)c3cc(F)cc(F)c3)C4(C)C)cc2NC(=O)c2cc[nH]c2)CC1`: the pIC50 in [22] is 7.05; in [23], 6.52.

For `CCOC(=O)c1[nH]c(C=O)c(C(=O)OCC)c1C`, the Activity turned out to be 15 µM in test [7], 2.7 µM in [8] and 12 µM on Insulin receptor [9].

As usually defined, the pIC50 is the IC50 on a negative log10 scale, so that one unit is a factor of ten. Lower therefore signals a large IC50.
